Experimental data published in US8133884B2, “Compounds for the treatment of hepatitis C” (priority 2008, dated 2012).

Assays:
HCV NS5B = molecular target: T1, HCV NS5B (Hepatitis C virus genotype 1b, UniProt Q9WMX2); test: Modified HCV NS5B RdRp enzyme assay (preincubation protocol); format: biochemical
T1 construct: The protein was expressed with an 18 amino acid C-terminal truncation to enhance the solubility; made in house; host or cells: E. coli BL21(DE3)
Procedure: The cDNA encoding the NS5B protein of HCV, genotype 1b, was cloned into the pET21a expression vector. The protein was expressed with an 18 amino acid C-terminal truncation to enhance the solubility. The E. coli competent cell line BL21(DE3) was used for expression of the protein. Cultures were grown at 37° C. for ˜4 hours until the cultures reached an optical density of 2.0 at 600 nm. The cultures were cooled to 20° C. and induced with 1 mM IPTG. Fresh ampicillin was added to a final concentration of 50 μg/ml and the cells were grown overnight at 20° C.
Cell pellets (3 L) were lysed for purification to yield 15-24 mgs of purified NS5B. The lysis buffer consisted of 20 mM Tris-HCl, pH 7.4, 500 mM NaCl, 0.5% triton X-100, 1 mM DTT, 1 mM EDTA, 20% glycerol, 0.5 mg/ml lysozyme, 10 mM MgCl2, 15 ug/ml deoxyribonuclease I, and Complete TM protease inhibitor tablets (Roche). After addition of the lysis buffer, frozen cell pellets were resuspended using a tissue homogenizer. To reduce the viscosity of the sample, aliquots of the lysate were sonicated on ice using a microtip attached to a Branson sonicator. The sonicated lysate was centrifuged at 100,000×g for 1 hr at 4° C. and filtered through a 0.2 μm filter unit (Corning).
The protein was purified using three sequential chromatography steps: Heparin sepharose CL-6B, polyU sepharose 4B, and […] SP sepharose (Pharmacia). The chromatography buffers were identical to the lysis buffer but contained no lysozyme, deoxyribonuclease I, MgCl2 or protease inhibitor and the NaCl concentration of the buffer was adjusted according to the requirements for charging the protein onto the column. Each column was eluted with a NaCl gradient which varied in length from 5-50 column volumes depending on the column type. After the final chromatography step, the resulting purity of the enzyme is >90% based on SDS-PAGE analysis. The enzyme was aliquoted and stored at −80° C.
HCV RdRp genotype 1b assays were run in a final volume of 60 μl in 96 well plates (Costar 3912). The assay buffer is composed of 20 mM Hepes, pH 7.5, 2.5 mM KCl, 2.5 mM MgCl2, 1 mM DTT, 1.6 U RNAse inhibitor (Promega N2515), 0.1 mg/ml BSA (Promega R3961), and 2% glycerol. All compounds were serially diluted (3-fold) in DMSO and diluted further in water such that the final concentration of DMSO in the assay was 2%. HCV RdRp genotype 1b enzyme was used at a final concentration of 28 nM. A polyA template was used at 6 nM, and a biotinylated oligo-dT12 primer was used at 180 nM final concentration. Template was obtained commercially (Amersham 27-4110). Biotinylated primer was prepared by Sigma Genosys. 3H-UTP was used at 0.6 μCi (0.29 μM total UTP). Reactions were initiated by the addition of enzyme, incubated at 30° C. for 60 min, and stopped by adding 25 μl of 50 mM EDTA containing SPA beads (4 μg/μl, Amersham RPNQ 0007). Plates were read on a Packard TOPCOUNT® NXT after >1 hr incubation at room temperature.
A modified enzyme assay was performed essentially as described for the standard enzyme assay except for the following: The biotinylated oligo dT12 primer was precaptured on streptavidin-coated SPA beads by mixing primer and beads in assay buffer and incubating at room temperature for one hour. Unbound primer was removed after centrifugation. The primer-bound beads were resuspended in 20 mM Hepes buffer, pH 7.5 and used in the assay at final concentrations of 20 nM primer and 0.67 μg/μl beads. Order of addition in the assay: enzyme (14 nM) was added to diluted compound followed by the addition of a mixture of template (0.2 nM), 3H-UTP (0.6 μCi, 0.29 μM), and primer-bound beads, to initiate the reaction; concentrations given are final. Reactions were allowed to proceed for 4 hours at 30° C.
IC50 values for compounds were determined using seven different [I]. IC50 values were calculated from the inhibition using the formula y=A+((B−A)/(1+((C/x)^D))).

HCV replicon = HCV replicon assay (FRET or luciferase reporter); format: cell-based; conditions: Hepatitis C virus, one of the methods described
Description: To perform the HCV FRET screening assay, 96-well cell culture plates were used, The FRET peptide (Anaspec, Inc.) (Taliani et al., Anal. Biochem., 240:60-67 (1996)) contains a fluorescence donor, EDANS, near one end of the peptide and an acceptor, DABCYL, near the other end. The fluorescence of the peptide is quenched by […] resonance energy transfer (RET) between the donor and the acceptor, but as the NS3 protease cleaves the peptide the products are released from RET quenching and the fluorescence of the donor becomes apparent. The assay reagent was made as follows: 5× cell Luciferase cell culture lysis reagent from Promega (#E153A) diluted to 1× with dH2O, NaCl added to 150 mM final, the FRET peptide diluted to 20 μM final from a 2 mM stock.
To prepare plates, HCV replicon cells, with or without a Renilla luciferase reporter gene, were trypsinized and placed into each well of a 96-well plate with titrated test compounds added in columns 3 through 12; columns 1 and 2 contained a control compound (HCV protease inhibitor), and the bottom row contained cells without compound. The plates were then placed in a CO2 incubator at 37° C.
Subsequent to addition of the test compounds described above (FRET Assay Preparation), at various times the plate was removed and Alamar blue solution (Trek Diagnostics, #00-100) was added per well as a measure of cellular toxicity. After reading in a CYTOFLUOR® 4000 instrument (PE Biosystems), plates were rinsed with PBS and then used for FRET assay by the addition of 30 ul of the FRET peptide assay reagent described above (FRET Assay Preparation) per well. The plate was then placed into the CYTOFLUOR® 4000 instrument which had been set to 340 excite/490 emission, automatic mode for 20 cycles and the plate read in a kinetic mode. Typically, the signal to noise using an endpoint analysis after the reads was at least three-fold. Alternatively, after Alamar blue reading, plates were rinsed with PBS, 50 ul of DMEM (high glucose) without phenol red was added and plates were then used for luciferase assay using the Promega DUAL-GLO® Luciferase Assay System.
Compound analysis was determined by quantification of the relative HCV replicon inhibition and the relative cytotoxicity values. To calculate cytoxicity values, the average Alamar Blue fluorescence signals from the control wells were set as 100% non-toxic. The individual signals in each of the compound test wells were then divided by the average control signal and multiplied by 100% to determine […]. To calculate the HCV replicon inhibition values, an average background value was obtained from the two wells containing the highest amount of HCV protease inhibitor at the end of the assay period. These numbers were similar to those obtained from naïve Huh-7 cells.
The background numbers were then subtracted from the average signal obtained from the control wells and this number was used as 100% activity. The individual signals in each of the compound test wells were then divided by the averaged control values after background subtraction and multiplied by 100% to determine percent activity. EC50 values for a protease inhibitor titration were calculated as the concentration which caused a 50% reduction in FRET or luciferase activity. The two numbers generated for the compound plate, percent cytoxicity and percent activity were used to determine compounds of interest for further analysis.
The HCV replicon luciferase assay was developed to monitor the inhibitory effects of compounds described in the disclosure on HCV viral replication. Utilization of a replicon luciferase reporter assay was first described by Krieger et al (Krieger, N. et al., J. Virology, 75(10):4614-4624 (2001)). HUH-7 cells, constitutively expressing the HCV replicon, were grown in Dulbecco's Modified Eagle Media (DMEM) (Gibco-BRL) containing 10% Fetal calf serum (FCS) (Sigma) and 1 mg/ml G418 (Gibco-BRL). […]

T1 sequence (Q9WMX2 2420-2992): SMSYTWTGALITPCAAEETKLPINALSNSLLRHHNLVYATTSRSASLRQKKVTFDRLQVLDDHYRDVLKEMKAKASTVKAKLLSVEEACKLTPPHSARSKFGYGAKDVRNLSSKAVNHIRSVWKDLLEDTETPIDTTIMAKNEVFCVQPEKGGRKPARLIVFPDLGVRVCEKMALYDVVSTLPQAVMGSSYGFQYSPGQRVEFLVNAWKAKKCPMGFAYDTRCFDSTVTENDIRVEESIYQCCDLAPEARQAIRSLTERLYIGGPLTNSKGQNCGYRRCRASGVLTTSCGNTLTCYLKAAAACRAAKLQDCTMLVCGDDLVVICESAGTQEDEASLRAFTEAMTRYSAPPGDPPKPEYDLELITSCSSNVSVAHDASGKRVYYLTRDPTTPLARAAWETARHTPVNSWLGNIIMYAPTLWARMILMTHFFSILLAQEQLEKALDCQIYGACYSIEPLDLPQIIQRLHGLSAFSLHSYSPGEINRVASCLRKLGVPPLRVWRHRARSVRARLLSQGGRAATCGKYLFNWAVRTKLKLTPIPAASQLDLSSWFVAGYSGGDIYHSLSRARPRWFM

Work on `COc1ccc2c(c1)C=C(c1c(C(=O)N3CC4CCC(C3)N4C)c(C)nn1C1CCC1)Cn1c-2c(C2CCCCC2)c2ccc(C(=O)NS(=O)(=O)C(C)C)cc21` yielded an IC50 (HCV NS5B; class symbol) of 1.7 to 500 nM and an EC50 (HCV replicon; class symbol) of 1.7 to 500 nM.
With `COCC1CN(C(=O)c2cnn(C3CCN(C)CC3)c2C2=Cc3cc(OC)ccc3-c3c(C4CCCCC4)c4ccc(C(=O)NS(=O)(=O)C(C)C)cc4n3C2)CCO1` (centres unmarked) the IC50 (HCV NS5B; class symbol) was 1.7 to 500 nM and the EC50 (HCV replicon; class symbol) was 1.7 to 500 nM.
Work on `COc1ccc2c(c1)C=C(c1c(C(=O)N3C[C@@H](C)O[C@@H](C)C3)cnn1C1CCN(C)CC1)Cn1c-2c(C2CCCCC2)c2ccc(C(=O)NS(=O)(=O)C(C)C)cc21` yielded an IC50 (HCV NS5B; class symbol) of 1.7 to 500 nM, an IC50 (HCV NS5B; exact value) of 5.4 nM and an EC50 (HCV replicon; class symbol) of 1.7 to 500 nM. The EC50 (HCV replicon; exact value) was 5.5 nM.
In the case of `COC[C@@H]1CN(C(=O)c2c(C)nn(C3CCC3)c2C2=Cc3cc(OC)ccc3-c3c(C4CCCCC4)c4ccc(C(=O)NS(=O)(=O)C(C)C)cc4n3C2)CCO1`, the IC50 (HCV NS5B; class symbol) is reported as 1.7 to 500 nM and the EC50 (HCV replicon; class symbol) is reported as 1.7 to 500 nM.
Molecule `COc1ccc2c(c1)C=C(c1c(C(=O)N3C[C@@H](C)N(C)[C@@H](C)C3)cnn1C1CCC1)Cn1c-2c(C2CCCCC2)c2ccc(C(=O)NS(=O)(=O)CC(C)C)cc21` has an IC50 (HCV NS5B; class symbol) of 1.7 to 500 nM and an EC50 (HCV replicon; class symbol) of 1.7 to 500 nM.
With `COc1ccc2c(c1)C=C(c1c(C(=O)N3CCN(C)CC3)c(C)nn1C1CCC1)Cn1c-2c(C2CCCCC2)c2ccc(C(=O)NS(=O)(=O)C(C)C)cc21` the IC50 (HCV NS5B; class symbol) was 1.7 to 500 nM and the EC50 (HCV replicon; class symbol) was 1.7 to 500 nM.
In the case of `COc1ccc2c(c1)C=C(c1c(C(=O)N3C[C@@H](C)O[C@@H](C)C3)cnn1-c1ccncc1C)Cn1c-2c(C2CCCCC2)c2ccc(C(=O)NS(=O)(=O)C3CC3)cc21`, the IC50 (HCV NS5B; class symbol) is reported as 1.7 to 500 nM and the EC50 (HCV replicon; class symbol) is reported as 1.7 to 500 nM.
For `COc1ccc2c(c1)C=C(c1c(C(=O)N3C[C@@H](C)O[C@@H](C)C3)cnn1-c1ncccn1)Cn1c-2c(C2CCCCC2)c2ccc(C(=O)NS(=O)(=O)C(C)C)cc21`, the IC50 (HCV NS5B; class symbol) was 1.7 to 500 nM and the EC50 (HCV replicon; class symbol) was 1.7 to 500 nM.
Work on `COc1ccc2c(c1)C=C(c1c(C(=O)N3C4CCC3CC(C)(O)C4)cnn1C1CCN(C)CC1)Cn1c-2c(C2CCCCC2)c2ccc(C(=O)NS(=O)(=O)C(C)C)cc21` (centres unmarked) yielded an IC50 (HCV NS5B; class symbol) of 1.7 to 500 nM, an IC50 (HCV NS5B; exact value) of 96 nM and an EC50 (HCV replicon; class symbol) of 1.7 to 500 nM. It also gave an EC50 (HCV replicon; exact value) of 10 nM.
For `COc1ccc2c(c1)C=C(c1c(C(=O)N3CCN(C)CC3)cnn1C1CCC1)Cn1c-2c(C2CCCCC2)c2ccc(C(=O)NS(=O)(=O)C(C)C)cc21`, the IC50 (HCV NS5B; class symbol) was 1.7 to 500 nM and the EC50 (HCV replicon; class symbol) was 1.7 to 500 nM.
`COc1ccc2c(c1)C=C(c1c(C(=O)N3CCOCC3)cnn1C1CCN(C)CC1)Cn1c-2c(C2CCCCC2)c2ccc(C(=O)NS(=O)(=O)C(C)C)cc21` gave an IC50 (HCV NS5B; class symbol) of 1.7 to 500 nM and an EC50 (HCV replicon; class symbol) of 1.7 to 500 nM.
